Assay results as given in patent publication US20260041770A1, “CELL MEMBRANE-ATTACHED HYALURONIC ACID-CD44 SPECIFIC BINDING REACTION POLYMER COMPOUND TO ENHANCE THE IMMUNE-ANTICANCER FUNCTION OF NATURAL KILLER CELLS” (DONGGUK UNIVERSITY INDUSTRY-ACADEMIC COOPERATION FOUNDATION, priority 2023, published 2026).

Tested on: NK92-mi NK cells
Test: NK cell surface modification efficiency (fluorescence intensity, cell coating efficacy)
Format: cell-based
Settings: polymer 1.0 mg/mL, 30 minutes at room temperature
Method: A polymer compound (HA-PEG-DSPE) was dissolved in MEM alpha at a concentration of 1.0 mg/mL, and 5×10^5 NK92-mi NK cells were evenly mixed with 100 μL of solution. The surface of NK cell was modified (HA-PEG-DSPE bound to NK cell) at room temperature for 30 minutes and then washed twice with MEM alpha. Cells were then lysed with 250 μL of RIPA buffer and stored at 4° C. for 30 minutes. Finally, 250 μL of distilled water was added, diluted, and transferred to 96-well to measure fluorescence intensity at 480/535 nm.

With PEG600 the “fluorescence intensity on NK cell” value was “fluorescence intensity is not substantially measured”.
In the case of PEG2000, the “cell coating efficacy of NK cell” value was “higher coating efficacy (cell coating efficacy, ng/10^5 cells) of NK cell compared to the polymer compound using PEG600 and PEG5000” and the “fluorescence intensity on NK cell” value was “strong fluorescence intensity is measured on the surface of NK cell”.
